Test results published in US8236984B2, “Compound and use thereof in the treatment of amyloidosis” (Pentraxin Therapeutics Ltd., priority 2007, dated 2012).

Key:
transthyretin = target: T1, transthyretin (Homo sapiens, UniProt P02766); test: Intrinsic fluorescence quenching of transthyretin by ligand titration; type: binding; conditions: 1 μM transthyretin, PBS pH 7.4, ligand 0-2 μM, excitation 280 nm, 20° C.
T1 construct: Native tetrameric transthyretin was purified from fractionated human plasma; from tissue; host or cells: human plasma
Protocol: 3.2.1. Binding of 4ajm15 and mds84 by transthyretin. The interactions between the ligands 4ajm15 or mds84 and transthyretin were studied by monitoring intrinsic fluorescence in the emission range 300-500 nm on excitation at 280 nm using a Perkin Elmer LS55 fluorimeter and a standard 1 cm path length quartz cell at 20° C. Quenching of tryptophan was achieved by titrating 1 μM transthyretin in PBS, pH 7.4 with increasing concentrations of each ligand in the range 0-2 μM (FIG. 2A). […] At the same time the changes in 4ajm15 fluorescence upon binding to the protein were monitored in the emission range 400-600 nm and excitation at 340 nm that is the wavelength specific for 4ajm15 excitation. In these conditions, accumulation of the spectra highlights an isosbestic point at 483 nm (FIG. 2B). The same results were achieved by using mds84 (not shown). The results of the titration of 4ajm15 in presence and absence of transthyretin support a model of binding in which both the binding sites are simultaneously occupied by the palindromic ligand.
In each case increasing concentrations of ligand (0-2 μM) were added to 1 μM protein. The arrow in FIG. 2B indicates the isosbestic point at 483 nm occurring on formation of the protein ligand complex. […] The percent quenching represents ΔF/F0 where F0 is fluorescence intensity prior to the addition of ligands and AF is the decrease in fluorescence at a given ligand concentration.

[1] = target: T2, L55P variant transthyretin (Homo sapiens, UniProt P02766, L75P); test: Inhibition of transthyretin aggregation at acidic pH (turbidity at 400 nm); type: biochemical; conditions: L55P 3.6 μM, pH 5.0; for Aggregation of transthyretin, Mean (1:1): ligand 3.6 μM; for Aggregation of transthyretin, Mean (3:1): ligand 10.8 μM
Protocol: (§1) 3.3.2 Inhibition of transthyretin aggregation by 4ajm15: In pilot experiments, transthyretin aggregates were formed from wild type transthyretin (3.6 μM) after incubation at acidic pH for 3 d at 37° C. (Colon and Kelly, 1992). The efficacy of 4ajm15 as an inhibitor of transthyretin aggregate formation was then compared with other transthyretin ligand compounds. […] After 30 min at 37° C., the pH was adjusted to pH 4.4 (with 0.2 M sodium acetate buffer pH 4.0), and the ˜1 ml mixtures were incubated unstirred for 3 d at 37° C.
(§2) Using the same method the activities of mds84 and 4ajm15 as inhibitors of the aggregation of both wild type transthyretin and the most aggressively aggregating transthyretin variant, L55P, were evaluated in triplicate with both proteins at 3.6 μM and with one (3.6 μM) or 3 equivalents (10.8 μM) of each ligand. Wild type transthyretin was studied at pH 4.4 and L55P at pH 5.0. […] Mean values and standard deviations are shown in Table 2 and in FIG. 4, where results with 1:1 molar ratio are shown cross hatched and 3:1 molar ratio in open bars.

wild type transthyretin [2] = target: T3, wild type transthyretin (Homo sapiens, UniProt P02766); test: as above; type: biochemical; set-up: isolated from pooled normal human plasma, was obtained from Scipac; purchased Scipac Ltd, Sittingbourne, Kent, UK; host or cells: pooled normal human plasma; conditions: wild type 3.6 μM, pH 4.4, 3 d 37° C.; for Aggregation of transthyretin, Mean (1:1): ligand 3.6 μM; for Aggregation of transthyretin, Mean (3:1): ligand 10.8 μM
Protocol: 3.3.1 Wild type transthyretin. The purified wild type transthyretin (liquid and lyophilised) used in these experiments, isolated from pooled normal human plasma, was obtained from Scipac, (Sittingbourne, Kent, UK). Protein concentration was determined by absorbance at 280 nm after correction for light scattering at 320 nm using the absorption coefficient E1 cm^1%=14.0. […] Nano electrospray ionisation mass spectrometry confirmed the presence of normal and cysteinylated transthyretin monomers (Terazaki et al, 1998) under denaturing conditions, and solvent-bound transthyretin tetramer (Nettleton et al, 1998) under mild desolvation conditions.
as §1, §2

[3] = target: T2, L55P variant transthyretin; test: Mass spectrometric analysis of subunit exchange; type: biochemical; set-up: made in house; conditions: L55P variant, decreasing molar ratios of ligand
Protocol: 4.2 Mass spectrometric analysis of subunit exchange. Recombinant wild type, L55P and V30M transthyretin variants were biosynthetically labelled with isotopes [^15N] and [^15N, ^13C] as previously described (Keetch C A et al, 2005). Immediately prior to analysis, proteins were buffer exchanged into 20 mM ammonium acetate, pH 7.0 using Micro Biospin columns (Bio-Rad, UK). The subunit composition of transthyretin was monitored as a function of time by incubating an equimolar solution (4.4 μM) of [^15N] and [^15N, ^13C] labelled proteins in the presence of 2-fold molar excess of 4ajm15 in DMSO or 2.5% DMSO alone as a control. Each experiment was carried out in triplicate at room temperature and at 4° C. as well, since it is known that subunit exchange is accelerated at low temperatures. Nanoflow ESMS was performed on a QToF2 instrument (Waters/Micromass UK, Ltd.) modified for high mass operation (Sobott et al, (2002)) and calibrated externally using caesium iodide (100 mg/ml). Each solution, 1.5 μl, was electrosprayed from gold coated borosilicate capillaries prepared in-house as described (Nettleton E J, et al, 1998). To preserve the non-covalent interactions in the transthyretin tetramer, the MS parameters applied were: capillary voltage 1.6 kV, sample cone 160 V, extractor cone 20 V, ion transfer stage pressure 7.0×10 ^−3 mbar, quadrupole analyzer pressure 9.5×10^−4 mbar and ToF analyzer pressure 1.7×10^−6 mbar. Data were processed with MassLynx software (Waters/Micromass UK, Ltd.) and are presented with minimal smoothing and without background subtraction.
This most unstable transthyretin variant rapidly undergoes spontaneous and extensive subunit exchange, as illustrated in FIG. 8. FIGS. 9-11 show the effects of decreasing molar ratios of mds84 on inhibition of subunit exchange. […] At lower molar ratios of mds84 some exchange takes place but the transthyretin molecules which bind mds84 are still completely stabilized.

[4] = target: T2, L55P variant transthyretin; test: Differential scanning calorimetry of transthyretin with ligand; type: binding; conditions: five fold molar excess of ligand
wild type transthyretin [5] = target: T3, wild type transthyretin; test: as above; type: binding; set-up: isolated from pooled normal human plasma, was obtained from Scipac; purchased Scipac Ltd, Sittingbourne, Kent, UK; host or cells: pooled normal human plasma; conditions: five fold molar excess of ligand

intrinsic fluorescence of transthyretin remaining after titration (transthyretin) [%] | Aggregation of transthyretin, Mean (1:1) [1] | Aggregation of transthyretin, Mean (3:1) [1] | Aggregation of transthyretin, Mean (1:1) (wild type transthyretin [2]) | Aggregation of transthyretin, Mean (3:1) (wild type transthyretin [2]) | ligand bound per mole of transthyretin for complete stabilization [3] | Tm of L55P variant transthyretin with the ligand [4] [°C] | increase in Tm of L55P variant transthyretin [4] [°C] | Tm of wild type transthyretin with the ligand (wild type transthyretin [5]) [°C] | increase in Tm of wild type transthyretin (wild type transthyretin [5]) [°C] | SMILES
60 | 55 per cent of control with DMSO alone | 22 per cent of control with DMSO alone | 25 per cent of control with DMSO alone | 1.2 per cent of control with DMSO alone |  |  |  |  |  | N[C@@H](Cc1cc(I)c(Oc2cc(I)c(O)c(I)c2)c(I)c1)C(=O)O [T4, 3,5,3′,5′-Tetraiodo-L-Thyronine, reference compound]
 | 32 per cent of control with DMSO alone | 16.8 per cent of control with DMSO alone | 12.5 per cent of control with DMSO alone | 1.14 per cent of control with DMSO alone | two moles | 98.3 | 3.7 | 104.9 | 4.6 | O=C(O)c1ccc2nc(-c3cc(Cl)cc(Cl)c3)oc2c1 [Fx-1006A, 2-(3,5-dichlorophenyl)benzo oxazole-6-carboxylic acid, reference compound]
